# Test system: XMRV
# Assay: XMRV Env expression in PHA/IL-2 activated PBMC cultures, staining with SFFV env moAb
# Format: cell-based
# Conditions: PBMCs of XMRV-infected individuals, PHA/IL-2 activated for three days; inhibitor (50 nM AZT, FIG. 3) added prior to activation
# Description: XMRV RNA could not always be detected in the PBMCs of subjects from which infectious virus had been isolated from plasma. […] We have observed that culturing these PBMCs under conditions that induce activation of T cells increases the frequency of XMRV detected by RT-PCR in the cells maintained in culture. […] To biologically increase the level of XMRV and increase the probability that XMRV sequences could be detected by PCR, PBMCs were cultured under conditions that activated T cells for 7-10 days, the RNA isolated, and nested RT-PCR analysis performed as described above.
structure (smiles),measurement,value
"Cc1cn([C@H]2C[C@H](N=[N+]=[N-])[C@@H](CO)O2)c(=O)[nH]c1=O [reverse transcriptase inhibitor, zidovudine]","XMRV expression, as measured by cell surface expression of Env",prevents the increase XMRV expression
